Experimental data from patent publication US20240262842A1, “SMALL MOLECULE INHIBITORS OF KRAS G12C MUTANT” (Merck Sharp & Dohme LLC, priority 2021, published 2024).
Like-named read-outs stand apart in the source and are kept apart here.

What was measured:
MIA PaCa-2 cells = assay: Growth inhibition activity on KRAS-G12C mutant cell line (CellTiter-Glo 3D); assay type: cell-based, human; conditions: MIA PaCa-2, 3-day culture with compound, Table 3-1
Method in brief: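 MIA PaCa-2 cells in RPMI1640 with 10% FBS, U-bottom wells, cultured 1 day before compound (0.2% DMSO final), then 3 days at 37 °C, 5% CO2. Viability by CellTiter-Glo 3D luminescence; growth inhibition versus untreated wells gives IC50 (nM).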

[1] = target: T1, interaction between GMPPNP-bound recombinant K-Ras4B G12C mutant protein and cRAF RAS-binding domain (cRAF-RBD) (Homo sapiens, UniProt P01116, G12C); assay: Inhibitory activity on interaction between KRAS G12C and cRAF (Alpha technology); conditions: Table 2-1
T1 construct: His-tag (N)
Method in brief: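 His-tagged K-Ras4B G12C (aa 1-169), GMPPNP-loaded, preincubated with compound 1 h at 25° C in pH 7.5 Tris buffer with MgCl2, TCEP, Tween 20. cRAF-RBD (aa 50-132) and Alpha reagents then added for 1.5 h; Alpha signal normalised to DMSO (0%) and GDP-bound KRAS (100%); IC50 from dose titration.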

[2] = GMPPNP-bound KRAS G12C incubated with compound 25° C. 1 hour, read-out: IC50
[3] = IC50, GMPPNP-bound KRAS G12C incubated with compound 25° C. 1 hour

T1 sequence (P01116 with tags, fused parts or gaps isoform P01116-2 G12C): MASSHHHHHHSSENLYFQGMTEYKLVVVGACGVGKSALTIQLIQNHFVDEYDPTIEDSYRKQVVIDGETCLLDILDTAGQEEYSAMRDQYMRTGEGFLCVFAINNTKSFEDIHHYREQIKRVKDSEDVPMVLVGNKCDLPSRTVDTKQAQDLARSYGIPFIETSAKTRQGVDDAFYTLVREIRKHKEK

Structure (SMILES): Cc1nc2c3c(c(C(F)(F)F)cc2n1C)-c1cccn2c(C(=O)c4ccc(NC(=O)/C=C/CNC5(C)COC5)c(F)c4)cc(c12)CCO3 [Example 68, (E)-N-(4-(9,10-dimethyl-7-(trifluoromethyl)-13,14-dihydro-9H-imidazo-[4″,5″:5′,6′]benzo[1′,2′: 2,3]oxocino[4,5,6-hi]-indolizine-2-carbonyl)-2-fluorophenyl)-4-((3-meth-yloxetan-3-yl)amino)but-2-enamide]
- IC50 (MIA PaCa-2 cells; Homo sapiens, MIA PaCa-2, 72 h): 16.4 nM
- IC50 [1, 2]: 91.2 nM

Structure (SMILES): CO[C@H]1CC[C@H](NC/C=C/C(=O)Nc2c(F)cc(C(=O)c3cn4c5c(cccc35)-c3c(C)cc5c(nc(C)n5C)c3N(C(C)=O)CC4)cc2F)CC1 [Example 72, (E)-N-(4-(11-acetyl-6,8,9-trimethyl-8,11,12,13-tetra-hydroimidazo[4″,5″: 5′,6′]benzo[1′,2′:2,3][1,4]-diazocino[7,8,1-hi]indole-2-carbonyl)-2,6-difluoro-phenyl)-4-(((1r,4r)-4-methoxycyclohexyl)-amino)but-2-enamide]
- IC50 (MIA PaCa-2 cells; Homo sapiens, MIA PaCa-2, 72 h): 1170 nM
- IC50 [1, 3]: 97.8 nM

Structure (SMILES): Cc1cc2c(nc(C)n2C)c2c1-c1cccc3c(C(=O)c4cc(F)c(NC(=O)/C=C/CNC56CCC(CC5)OC6)c(F)c4)cn(c13)CCN2C [Example 73, (E)-4-((2-oxabicyclo-[2.2.2]octan-4-yl)amino)-N-(2,6-difluoro-4-(6,8,9,11-tetramethyl-8,11,12,13-tetrahydro-imidazo[4″,5″:5′,6′]-benzo[1′,2′:5,6][1,4]-diazocino[7,8,1-hi]indole-2-carbonyl)phenyl)but-2-enamide]
- IC50 (MIA PaCa-2 cells): 21.6 nM
- IC50 [1, 3]: 46.9 nM

Structure (SMILES): CO[C@H]1CC[C@H](NC/C=C/C(=O)Nc2c(F)cc(C(=O)c3cc4c5c(cccn35)-c3c(C(F)(F)F)cc5c(ncn5C)c3N(C)CC4)cc2F)CC1 [Example 74, (E)-N-(4-(9,12-dimethyl-7-(trifluoromethyl)-9,12,13,14-tetrahydro-imidazo[4″,5″:5′,6′]benzo-[1′,2′:2,3]azocino[4,5,6-hi]indolizine-2-carbonyl)-2,6-difluorophenyl)-4-(((1r,4r)-4-methoxycyclo-hexyl)amino)but-2-en-amide]
- IC50 (MIA PaCa-2 cells; Homo sapiens, MIA PaCa-2, 72 h): 8.22 nM
- IC50 [1, 2]: 33.3 nM

Structure (SMILES): CO[C@H]1CC[C@H](NC/C=C/C(=O)Nc2c(F)cc(C(=O)c3cn4c5c(cccc35)-c3c(C(F)(F)F)cc5c(nc(C)n5C)c3N(C)C(=O)C4)cc2F)CC1 [Example 76, (E)-N-(2,6-difluoro-4-(8,9,11-trimethyl-12-oxo-6-(trifluoromethyl)-8,11,12,13-tetrahydro-imidazo[4″,5″:5′,6′]benzo-[1′,2′:5,6][1,4]diazocino-[7,8,1-hi]indole-2-carbon-yl)phenyl)-4-(((1r,4r)-4-methoxycyclohexyl)-amino)but-2-enamide]
- IC50 (MIA PaCa-2 cells; Homo sapiens, MIA PaCa-2, 72 h): 7.14 nM
- IC50 [1, 3]: 22.2 nM

Structure (SMILES): Cc1nc2c3c(c(C(F)(F)F)cc2n1C)-c1cccc2c(C(=O)c4cc(F)c(NC(=O)/C=C/CNC5(C)COC5)c(F)c4)cn(c12)CC(=O)N3C [Example 77]
- IC50 (MIA PaCa-2 cells; Homo sapiens, MIA PaCa-2, 72 h): 54 nM
- IC50 [1, 3]: 80.4 nM

Structure (SMILES): COc1cc2c(nc(C)n2C)c2c1-c1cccn3c(C(=O)c4cc(F)c(NC(=O)/C=C/CN[C@H]5CC[C@H](OC)CC5)c(F)c4)cc(c13)CCN2C [Example 78, (E)-N-(2,6-difluoro-4-(7-methoxy-9,10,12-tri-methyl-9,12,13,14-tetra-hydroimidazo[4″,5″:5′,6′]-benzo[1′,2′:2,3]azocino-[4,5,6-hi]indolizine-2-carbonyl)phenyl)-4-(((1r,4r)-4-methoxycyclo-hexyl)amino)but-2-en-amide]
- IC50 (MIA PaCa-2 cells; Homo sapiens, MIA PaCa-2, 72 h): 6.92 nM
- IC50 [1, 2]: 33.7 nM

Structure (SMILES): COc1cc2c(nc(C)n2C)c2c1-c1cccn3c(C(=O)c4cc(F)c(NC(=O)/C=C/CNC(C)(C)C)c(F)c4)cc(c13)CCN2C [Example 79, (E)-4-(tert-butylamino)-N-(2,6-difluoro-4-(7-methoxy-9,10,12-trimeth-yl-9,12,13,14-tetrahydro-imidazo[4″,5″:5′,6′]benzo-[1′,2′:2,3]azocino[4,5,6-hi]indolizine-2-carbonyl)-phenyl)but-2-enamide]
- IC50 (MIA PaCa-2 cells; Homo sapiens, MIA PaCa-2, 72 h): 10.6 nM
- IC50 [1, 2]: 32.8 nM

Structure (SMILES): Cn1cnc2c3c(c(C(F)(F)F)cc21)-c1cccc2c(C(=O)c4cc(F)c(NC(=O)/C=C/CNC5(C)COC5)c(F)c4)cn(c12)CCO3 [Example 80, (E)-N-(2,6-difluoro-4-(8-methyl-6-(trifluorometh-yl)-12,13-dihydro-8H-imidazo[4″,5″:3′,4′]benzo-[1′,2′:7,8][1,4]oxazocino-[6,5,4-hi]indole-2-carbon-yl)phenyl)-4-((3-methyl-oxetan-3-yl)amino)but-2-enamide]
- IC50 (MIA PaCa-2 cells; Homo sapiens, MIA PaCa-2, 72 h): 22.2 nM
- IC50 [1, 3]: 28.3 nM

Structure (SMILES): CN1CCn2cc(C(=O)c3cc(F)c(NC(=O)/C=C/CNC(C)(C)CF)c(F)c3)c3cccc(c32)-c2c(C(F)(F)F)cc3c(ncn3C)c21 [Example 81, (E)-N-(4-(8,11-dimethyl-6-(trifluoromethyl)-8,11,12,13-tetrahydro-imidazo[4″,5″:5′,6′]benzo-[1′,2′:5,6][1,4]diazocino-[7,8,1-hi]indole-2-carbon-yl)-2,6-difluorophenyl)-4-((1-fluoro-2-methyl-propan-2-yl)amino)but-2-enamide]
- IC50 (MIA PaCa-2 cells; Homo sapiens, MIA PaCa-2, 72 h): 33.4 nM
- IC50 [1, 3]: 20.8 nM

Structure (SMILES): Cc1nc2c3c(c(C(F)(F)F)cc2n1C)-c1cccc2c(C(=O)c4cc(F)c(NC(=O)/C=C/CNC(C)(C)CF)c(F)c4)cn(c12)CCN3C [Example 82, (E)-N-(2,6-difluoro-4-(8,9,11-trimethyl-6-(trifluoromethyl)-8,11,12,13-tetrahydro-imidazo[4″,5″:5′,6′]benzo-[1′,2′:5,6][1,4]diazocino-[7,8,1-hi]indole-2-carbon-yl)phenyl)-4-((1-fluoro-2-methylpropan-2-yl)-amino)but-2-enamide]
- IC50 (MIA PaCa-2 cells; Homo sapiens, MIA PaCa-2, 72 h): 29.9 nM
- IC50 [1, 3]: 24.9 nM

Structure (SMILES): Cc1cc2c(nc(C)n2C)c2c1-c1cccc3c(C(=O)c4cc(F)c(NC(=O)/C=C/CNC5CC6(COC6)C5)c(F)c4)cn(c13)CCN2C [Example 84, (E)-4-((2-oxaspiro[3.3]-heptan-6-yl)amino)-N-(2,6-difluoro-4-(6,8,9,11-tetramethyl-8,11,12,13-tetrahydroimidazo[4″,5″: 5′,6′]benzo[1′,2′:5,6]-[1,4]diazocino[7,8,1-hi]-indole-2-carbonyl)phenyl) but-2-enamide]
- IC50 (MIA PaCa-2 cells; Homo sapiens, MIA PaCa-2, 72 h): 49.6 nM
- IC50 [1, 3]: 39.9 nM

Structure (SMILES): CC(=O)C(C)(C)NC/C=C/C(=O)Nc1c(F)cc(C(=O)c2cn3c4c(cccc24)-c2c(C)cc4c(nc(C)n4C)c2N(C)CC3)cc1F [Example 85, (E)-N-(2,6-difluoro-4-(6,8,9,11-tetramethyl-8,11,12,13-tetrahydro-imidazo[4″,5″:5′,6′]benzo-[1′,2′:5,6][1,4]diazocino-[7,8,1-hi]indole-2-carbon-yl)phenyl)-4-(2-methyl-3-oxobutan-2-ylamino)but-2-enamide]
- IC50 (MIA PaCa-2 cells; Homo sapiens, MIA PaCa-2, 72 h): 30.9 nM
- IC50 [1, 3]: 61 nM

Structure (SMILES): CC(=O)N1CCC(C)(NC/C=C/C(=O)Nc2c(F)cc(C(=O)c3cc4c5c(cccn35)-c3c(C(F)(F)F)cc5c(ncn5C)c3N(C)CC4)cc2F)CC1 [Example 86, (E)-4-((1-acetyl-4-methyl-piperidin-4-yl)amino)-N-(4-(9,12-dimethyl-7-(trifluoromethyl)-9,12,13,14-tetrahydro-imidazo[4″,5″:5′,6′]benzo-[1′,2′:2,3]azocino[4,5,6-hi]indolizine-2-carbonyl)-2,6-difluorophenyl)but-2-enamide]
- IC50 (MIA PaCa-2 cells; Homo sapiens, MIA PaCa-2, 72 h): 6.11 nM
- IC50 [1, 2]: 22.3 nM

Structure (SMILES): CO[C@H]1CC[C@H](NC/C=C/C(=O)Nc2ccc(C(=O)c3cn4c5c(cccc35)-c3c(C(F)(F)F)cc5c(nc(C)n5C)c3N(C)CC4)nc2)CC1 [Example 88, (E)-4-(((1r,4r)-4-methoxy-cyclohexyl)amino)-N-(6-(8,9,11-trimethyl-6-(trifluoromethyl)-8,11,12,13-tetrahydro-imidazo[4″,5″:5′,6′]benzo-[1′,2′:5,6][1,4]diazocino-[7,8,1-hi]indole-2-carbon-yl)pyridin-3-yl)but-2-enamide]
- IC50 (MIA PaCa-2 cells; Homo sapiens, MIA PaCa-2, 72 h): 6.92 nM
- IC50 [1, 2]: 39.5 nM

Structure (SMILES): Cc1nc2c3c(c(C(F)(F)F)cc2n1C)-c1cccc2c(C(=O)c4cc(F)c(NC(=O)/C=C/CNC5(C)COC5)c(F)c4)cn(c12)CCO3 [Example 91]
- IC50 (MIA PaCa-2 cells; Homo sapiens, MIA PaCa-2, 72 h): 8.68 nM
- IC50 [1, 3]: 27.2 nM

Structure (SMILES): COc1cc2c(nc(C)n2C)c2c1-c1cccn3c(C(=O)c4cc(F)c(NC(=O)/C=C/CNC(C)(C)CF)c(F)c4)cc(c13)CCN2C [Example 93]
- IC50 (MIA PaCa-2 cells; Homo sapiens, MIA PaCa-2, 72 h): 51.6 nM
- IC50 [1, 2]: 33.6 nM

Structure (SMILES): Cc1cc2c(nc(C)n2C)c2c1-c1cccc3c(C(=O)c4cc(F)c(NC(=O)/C=C/CNCC(=O)N(C)C)c(F)c4)cn(c13)CCN2C [Example 94, (E)-N-(2,6-difluoro-4-(6,8,9,11-tetramethyl-8,11,12,13-tetrahydro-imidazo[4″,5″:5′,6′]-benzo[1′,2′:5,6][1,4]-diazocino[7,8,1-hi]indole-2-carbonyl)phenyl)-4-((2-(dimethylamino)-2-oxoethyl)amino)but-2-enamide]
- IC50 (MIA PaCa-2 cells; Homo sapiens, MIA PaCa-2, 72 h): 73 nM
- IC50 [1, 3]: 71.6 nM

Structure (SMILES): CN1CCc2cc(C(=O)c3cc(F)c(NC(=O)/C=C/CNCCO)c(F)c3)n3cccc(c23)-c2c(C(F)(F)F)cc3c(ncn3C)c21 [Example 96, (E)-N-(4-(9,12-dimethyl-7-(trifluoromethyl)-9,12,13,14-tetrahydro-imidazo[4″,5″:5′,6′]benzo-[1′,2′:2,3]azocino[4,5,6-hi]indolizine-2-carbonyl)-2,6-difluorophenyl)-4-((2-hydroxyethyl)amino)but-2-enamide]
- IC50 (MIA PaCa-2 cells; Homo sapiens, MIA PaCa-2, 72 h): 14.5 nM
- IC50 [1, 2]: 30.6 nM
